In US20250298000A1, “PREPARATION OF CULTURE MEDIUM AND USE THEREFOR IN WATER TOXICITY CO[…]” (CHANGCHUN INSTITUTE OF APPLIED CHEMISTRY, CHINESE ACADEMY …, priority 2022, published 2025):

Tested on: Bacillus subtilis
Test: Colorimetric detection of water toxicity with Bacillus subtilis cultured in CM-Fe medium and potassium ferricyanide (Prussian blue, absorbance at 690 nm, 96-well plate)
Assay type: cell-based
Conditions: bacterial suspension OD600=2, 8 mM potassium ferricyanide, 20 min reaction; for detection limit (toxicant concentration discerned with naked eyes by color difference): sample photographs
Experimental: The inhibition rate is specifically calculated as: Inhibition %=(1−Abstox/Abscon)×100(1); • wherein, Abstox represents the peak value of the ultraviolet absorption spectrum of the sample to be detected at 690 nm, and Abscon represents the peak value of the ultraviolet absorption spectrum of the standard sample at 690 nm; • the IC50 value is calculated by: taking a concentration of toxicant in the water to be detected as the abscissa and the inhibition rate as the ordinate, drawing a curve, and fitting to obtain the IC50 value.
20 g of glucose, 15 g of peptone, 5 g of NaCl, 0.5 g of yeast extract and 0.001-10 g of ferric citrate were weighed, mixed and ground into powder by a dry grinding method in a ball mill to obtain a new culture medium CM-Fe.
1-100 g of CM and 1-100 g of CM-Fe culture media were added into two 1 L beakers respectively, adjusted to a volume of 1 L by adding deionized water, stirred, ultrasonicated, dissolved, and aliquoted in six 500 mL triangular flasks (3 for each culture medium), which were sealed with a sterile filtration sealing film, sterilized with high-temperature and high-pressure at 121° C. (98 kPa) for 5-40 min, and cooled down for later use.
Bacillus subtilis was inoculated into sterilized CM and CM-Fe culture media respectively, and cultured in a constant temperature shaker at 50-300 rpm at 37° C. for 8-30 h. The cultured bacterial liquid was centrifuged at 3000-10000 rpm for 1-20 min, then centrifuged and washed twice with 0.1-30% NaCl solution to remove the culture medium. Finally, Bacillus subtilis was resuspended in 0.1-30% NaCl solution and placed at 0-30° C. for later use.
100 μL of two suspensions of bacteria with OD600=2, 50 μL of Cu^2+ at varying concentrations and 50 μL of 8 mM potassium ferricyanide were mixed in the wells of a 96-well plate and reacted for 20 min. […] At low Cu^2+, concentrations, the color of the toxic samples was similar to that of the non-toxic samples. […] The final concentrations of toxicants from top to bottom were 0 mg/L, 0.49 mg/L, 0.98 mg/L, 1.95 mg/L, 3.9 mg/L, 7.8 mg/L and 15.63 mg/L, respectively. […]

SMILES | IC20 fitted from inhibition rate curve (peak at 690 nm) | detection limit (toxicant concentration discerned with naked eyes by color difference)
[Cu+2] [Cu^2+] | 2.4 µg/mL | 3.9 mg/L
[Hg+2] [Hg^2+] | – | 0.49 mg/L
